Measured values from patent US12048685B2, “Transient receptor potential cation channel subfamily m member 8 (TRPM8) antagonists and methods of use” (Ora, Inc., priority 2015, dated 2024).
Where a name gives a salt, the structure may show the parent alone.

Legend:
[1] = Corneal sensitivity measured by Cochet Bonnet after topical dosing; format: in vivo, human
Protocol: (§1) A series of experiments were carried out assessing the clinical signs and symptoms of dry eye disease or severe dry eye disease using a commercially available TRPM8 antagonist, N-(2-Aminoethyl)-N-(4-(benzyloxy)-3-methoxybenzyl)thiophene-2-carboxamide hydrochloride, N-(2-Aminoethyl)-N-[[3-methoxy-4-(phenylmethoxy)phenyl]methyl]-2-thiophenecarboxamide hydrochloride (Sigma Aldrich M8-B hydrochloride (SML0893)), shown below as Compound I, at a concentration of 0.1% (vs placebo), administered unilaterally.
(§2) Post-dose, exposure to Menthol (ROHTO Hydra), as well as to an adverse environment (CAESM), was used to elicit symptomology in 3 patients with healthy eyes. Validated symptom scales were used to collect levels of discomfort secondary to the exposures (Ora Calibra™ Ocular Discomfort Questionnaire, Drop Comfort Questionnaire). A summary of the findings is presented below.
In a first set of experiments, the effect of Compound I on corneal sensitivity was examined. Subjects (shown by initials E-A, KJL, M-C) were dosed with 20 ul of Compound I (0.1%) or a placebo (BSS).

TRPM-8 channels = molecular target: T1, TRPM-8 channels (Homo sapiens, UniProt Q7Z2W7); test: Post-menthol treatment symptoms (Drop Discomfort) after dosing, menthol-containing eyedrop (ROHTO Hydra); format: in vivo
T1 construct: from tissue; host or cells: eye (ocular surface) of living human subjects
T1 sequence (Q7Z2W7 whole entry): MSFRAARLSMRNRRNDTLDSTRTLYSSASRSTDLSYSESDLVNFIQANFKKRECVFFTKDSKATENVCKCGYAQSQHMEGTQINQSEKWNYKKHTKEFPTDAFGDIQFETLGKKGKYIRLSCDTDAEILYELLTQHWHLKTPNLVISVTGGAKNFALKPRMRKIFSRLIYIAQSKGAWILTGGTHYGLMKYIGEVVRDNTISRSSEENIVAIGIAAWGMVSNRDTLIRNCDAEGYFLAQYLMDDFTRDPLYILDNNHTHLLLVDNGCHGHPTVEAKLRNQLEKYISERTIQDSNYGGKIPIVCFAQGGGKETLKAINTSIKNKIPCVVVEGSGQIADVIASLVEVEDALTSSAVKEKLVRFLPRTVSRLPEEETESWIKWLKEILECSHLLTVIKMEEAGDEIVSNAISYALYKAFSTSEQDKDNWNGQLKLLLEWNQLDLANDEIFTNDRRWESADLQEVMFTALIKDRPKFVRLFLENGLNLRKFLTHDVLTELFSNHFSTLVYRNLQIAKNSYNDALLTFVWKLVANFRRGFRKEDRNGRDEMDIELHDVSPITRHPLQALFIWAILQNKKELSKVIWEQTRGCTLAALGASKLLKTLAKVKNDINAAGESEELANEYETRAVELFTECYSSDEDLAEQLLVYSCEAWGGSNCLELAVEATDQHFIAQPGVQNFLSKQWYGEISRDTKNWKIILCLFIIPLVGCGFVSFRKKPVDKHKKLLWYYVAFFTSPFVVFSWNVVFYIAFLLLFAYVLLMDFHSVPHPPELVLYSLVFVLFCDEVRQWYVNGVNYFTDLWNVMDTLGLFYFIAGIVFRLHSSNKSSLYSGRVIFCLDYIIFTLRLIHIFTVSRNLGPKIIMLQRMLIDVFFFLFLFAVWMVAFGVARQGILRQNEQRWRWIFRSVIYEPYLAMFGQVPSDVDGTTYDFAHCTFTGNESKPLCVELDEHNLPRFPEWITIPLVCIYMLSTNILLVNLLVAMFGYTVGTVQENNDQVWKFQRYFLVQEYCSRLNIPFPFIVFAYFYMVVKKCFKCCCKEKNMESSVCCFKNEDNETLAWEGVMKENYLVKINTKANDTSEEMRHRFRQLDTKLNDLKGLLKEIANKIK
Description: Post-dose, exposure to Menthol (ROHTO Hydra), as well as to an adverse environment (CAESM), was used to elicit symptomology in 3 patients with healthy eyes. Validated symptom scales were used to collect levels of discomfort secondary to the exposures (Ora Calibra™ Ocular Discomfort Questionnaire, Drop Comfort Questionnaire). A summary of the findings is presented below. The effect of topical menthol application after dosing with Compound I or placebo was examined. After dosing with Compound I or placebo, 1 drop menthol-containing OTC eyedrop were administered bilaterally (ROHTO Hydra). Menthol is known to act upon TRPM-8 channels, effectively causing neural activity similar in nature to exposure to cold temperature. As such, menthol was used to induce a “cooling” symptom. […] Baseline (pre-menthol) symptoms were “0” for each eye, for all 3 subjects (data not shown).

[2] = Ocular discomfort on exposure to a Controlled Adverse Environment (CAE); format: in vivo, human; details: CAE for 25 minutes, asked every 5 minutes, p<0.01, FIGS. 4A and B
Protocol: as §1, §2
The effect of CAE exposure after dosing with Compound I or placebo was examined. After dosing with Compound I or placebo, subjects were exposed to a Controlled Adverse Environment (CAE) for 25 minutes, in order to elicit symptomology similar in nature to dry eye symptoms. An Ocular Discomfort Questionnaire (0-4 scale) was asked every 5 minutes.

[3] = Ocular discomfort on exposure to Turbo-CAE after CAE (severe dry eye symptoms); format: in vivo, human; details: 15 minutes of Turbo-CAE after 25-minute CAE, p<0.01, FIGS. 5A and B
Protocol: as §1, §2
Next, the effect of Turbo-CAE exposure after dosing with Compound I or placebo was examined. After 25-minute Controlled Adverse Environment (CAE) exposure, subjects were exposed to 15 minutes of Turbo-CAE, in order to elicit symptomology similar in nature to severe dry eye symptoms. An Ocular Discomfort Questionnaire (0-4 scale) was asked every 5 minutes.

Balb/C mice = details: 15 minutes and 24 hours post TRPM8 antagonist dose (0.01%, 0.05%, 0.10%), immediately post menthol dose, water control, FIG. 6
Protocol: Behavioral endpoints, e.g. blinking for balb/cs nice, was tested. […] Treatment of the mice with water was used as a control. TRPM8 antagonist was used at concentrations of 0.01%, 0.05% and 0.10%.

Molecule	effect on corneal sensitivity ([1]; 20 ul of 0.1%, unilateral, vs placebo (BSS), 3 subjects with healthy eyes, Cochet Bonnet, FIG. 2)	decrease in sensitivity ([1]; Subject, 70 mm to 65 mm, 20 ul of 0.1%) [mm]	changes in sensitivity ([1]; Subjects E-A and M-C, 20 ul of 0.1%)	difference in corneal sensitivity pre- to post-dose ([1]; p=0.42, 3 subjects)	action of menthol (cooling symptom) (TRPM-8 channels; 0.1% dosed before 1 drop menthol-containing OTC eyedrop bilaterally, FIGS. 3A and B)	subject-reported symptom scores (Drop Discomfort, 0-10 scale) vs placebo (TRPM-8 channels; post-menthol, treated eye vs placebo eye, p<0.01, 3 subjects)	symptom scores (Ocular Discomfort Questionnaire, 0-4 scale) vs placebo [2]	symptom scores (Ocular Discomfort Questionnaire, 0-4 scale) vs placebo [3]	blink rate per minute (Balb/C mice)
COc1cc(CN(CCN)C(=O)c2cccs2)ccc1OCc1ccccc1 [Compound I, N-(2-Aminoethyl)-N-(4-(benzyloxy)-3-methoxybenzyl)thiophene-2-carboxamide hydrochloride]	minimal effect	5	no detectable changes	No significant difference	effectively block the action of menthol	significantly lower symptom scores than placebo	significantly lower symptom scores than placebo	significantly lower symptom scores than placebo	
CC1CCC(C(C)C)C(O)C1 (stereo not shown) [menthol]									increase in blink rate
N-(2-Aminoethyl)-N-(4-(benzyloxy)-3-methoxybenzyl)thiophene-2-carboxamide hydrochloride [Compound I]									reproducibly blocked
